Assay results reported in paper PMC4305367 (Cancer Chemotherapy and Pharmacology, 2014).
“Also recorded” adds a separate entry of the source.

Legend:
serum testosterone = experiment: Pharmacodynamics: serum testosterone; assay type: in vivo, human; details: for Serum testosterone: mean (SD), LLOQ 0.05 or 0.03
Method: (§1) Endocrine parameters such as serum testosterone and dehydroepiandrosterone sulfate (DHEA-S) were measured for PD analysis. The blood sample were collected on Days 1, 8, 15, and 22 of Cycle 1 and then on Day 1 of each subsequent 28-day cycle. Assay procedure for testosterone was improved during the study, and the lower limit of quantification (LLOQ) for testosterone changed from 0.05 to 0.03 ng/mL.

serum androgen levels = details: monkeys; cited from earlier work
[1] = test system: prostate-specific antigen (PSA); experiment: Serum PSA levels and PSA response (PCWG2 criteria); assay type: in vivo, human; details: during the study; 15 patients
Method: (§2) The efficacy endpoints were serum PSA levels, PSA response rates based on the Prostate Cancer Clinical Trials Working Group (PCWG) 2 criteria, and objective disease response rates based on the General Rule for Clinical and Pathological Studies on Prostate Cancer and modified RECIST version 1.0. PSA levels were measured on Days 1 and 15 in Cycle 1, on Day 1 of Cycle 2 and each subsequent cycle. Tumor assessments were performed on Day 29, 85, and every 12-week cycle for subsequent cycles.

[2] = test system: Japanese patients with castration-resistant prostate cancer; experiment: Phase 1 safety assessment: adverse events (NCI-CTCAE v3.0), DLT, laboratory profiles, ECG; assay type: in vivo, human
Source text: The propriety of transitions to subsequent dose cohort was judged on the basis of the number of patients with dose-limiting toxicities (DLTs) during Cycle 1 (28 days). […] Patients could continue study treatment until criteria for treatment discontinuation were met. The use of aldosterone antagonists (e.g., eplerenone) was allowed for patients with clinical symptoms of mineralocorticoid excess such as hypertension, hypokalemia, and edema.
Safety assessments included the evaluation of adverse events (AEs), laboratory profiles, physical examination, and vital signs throughout the study. AEs were graded using National Cancer Institute Common Terminology Criteria for Adverse Events (NCI-CTCAE) v3.0. Analysis of serum amylase and lipase was added to the clinical laboratory tests before enrollment of patients into the 400-mg BID plus prednisolone cohort because pancreatitis was reported during the study. A safety follow-up was performed for 28 days after the final dose of the study treatment. During Cycle 1 (28 days), DLT was also evaluated. DLTs were defined as any drug-related AE of ≥ Grade 3 and pre-specified cardiac-related AEs of lower grade. Hypertension, hypokalemia, and edema attributed to increased ACTH secretion maintained at Grade 2 or lower through the use of eplerenone were not considered DLTs.

clinical = details: human, in vivo; for AUC(0-t): AUC0–8h; for Cmax: C max
[3] = test system: dehydroepiandrosterone sulfate (DHEA-S); experiment: Pharmacodynamics: serum DHEA-S; assay type: in vivo, human; details: for Serum DHEA-S: mean (SD), LLOQ 2.0
Method: as §1

[4] = test system: castration-resistant prostate cancer; experiment: Objective disease response (General Rule for Prostate Cancer; modified RECIST 1.0); assay type: in vivo, human
Method: as §2

[5] = male, human, in vivo, 24 h
[6] = General Rule for Clinical and Pathological Studies on Prostate Cancer, 15 patients

CNC(=O)c1ccc2cc([C@@]3(O)CCn4cncc43)ccc2c1 [Orteronel]
Serum testosterone (serum testosterone; Cycle 1 Day 8, 200 mg BID (N = 3), screening 0.153 (0.0611)): 0.050 (0.0000) ng/mL | Serum testosterone (serum testosterone; Cycle 1 Day 8, 300 mg BID (N = 3), screening 0.123 (0.0702)): 0.030 (0.0000) ng/mL | Serum testosterone (serum testosterone; Cycle 1 Day 8, 300 mg BID + prednisolone (N = 3), screening 0.127 (0.0473)): 0.030 (0.0000) ng/mL | Serum testosterone (serum testosterone; Cycle 1 Day 8, 400 mg BID (N = 3), screening 0.057 (0.0115)): 0.050 (0.0000) ng/mL | Serum testosterone (serum testosterone; Cycle 1 Day 8, 400 mg BID + prednisolone (N = 3), screening 0.053 (0.0058)): 0.043 (0.0115) ng/mL | Serum testosterone (serum testosterone; Cycle 2 Day 1, 200 mg BID (N = 3), screening 0.153 (0.0611)): 0.050 (0.0000) ng/mL | Serum testosterone (serum testosterone; Cycle 2 Day 1, 300 mg BID (N = 3), screening 0.123 (0.0702)): 0.030 (0.0000) ng/mL | Serum testosterone (serum testosterone; Cycle 2 Day 1, 300 mg BID + prednisolone (N = 3), screening 0.127 (0.0473)): 0.030 (0.0000) ng/mL | Serum testosterone (serum testosterone; Cycle 2 Day 1, 400 mg BID (N = 3), screening 0.057 (0.0115)): 0.050 (0.0000) ng/mL | Serum testosterone (serum testosterone; Cycle 2 Day 1, 400 mg BID + prednisolone (N = 3), screening 0.053 (0.0058)): 0.037 (0.0115) ng/mL | Suppression of serum testosterone (serum testosterone; by 1 week after initiation (Day 8), across all cohorts): rapidly suppressed below the lower limit of quantification; also recorded: rapidly suppressed to the LLOQ or lower | Effect on serum androgen levels in vivo (serum androgen levels): reduced serum androgen levels | Overall median maximum PSA reduction [1]: 88.48% | Deaths ([2]; during the study, 15 patients): No deaths were reported | Number of SAEs considered related to the study treatment ([2]; in vivo): nine | Patients with acute pancreatitis (Grades 2 and 3) or pancreatitis (Grade 1) ([2]; in vivo): three | Patients with pancreatic-related AEs ([2]; in vivo): ten | Serious AEs (SAEs) in Cycle 1 ([2]; in vivo): Neither DLTs nor serious AEs (SAEs) were reported | TEAEs associated with adrenal insufficiency ([2]; in vivo): No TEAE associated with adrenal insufficiency was reported | Treatment-related SAEs in the 200- and 300-mg BID cohorts ([2]; in vivo): No treatment-related SAE was observed | 12-lead ECG and echocardiography findings ([2]; male, human, in vivo): No clinically significant abnormal 12-lead ECG and echocardiography findings were observed | Abnormalities in hematologic test or urinalysis ([2]; male, human, in vivo): No Grade 3 or higher abnormalities were observed | Incidence of constipation (AE) ([2]; male, human, in vivo): 33% | Incidence of hyperamylasemia (AE) ([2]; male, human, in vivo): 40% | Incidence of hyperlipasemia (AE) ([2]; male, human, in vivo): 47% | Mineralocorticoid-related TEAE: hypertension ([2]; male, human, in vivo): 4 n | Mineralocorticoid-related TEAE: hypokalemia ([2]; male, human, in vivo): 3 n | Patients who experienced SAEs ([2]; male, human, in vivo): 60% | Patients with at least 1 TEAE ([2]; male, human, in vivo): 100% | Patients with at least 1 treatment-related AE ([2]; male, human, in vivo): 93% | TEAE subject incidence: Abdominal pain upper ([2]; male, human, in vivo): 2 (13) n (%) | TEAE subject incidence: Blood creatine phosphokinase increased ([2]; male, human, in vivo): 2 (13) n (%) | TEAE subject incidence: Constipation ([2]; male, human, in vivo): 5 (33) n (%) | TEAE subject incidence: Contusion ([2]; male, human, in vivo): 2 (13) n (%) | TEAE subject incidence: Dysgeusia ([2]; male, human, in vivo): 4 (27) n (%) | TEAE subject incidence: Fall ([2]; male, human, in vivo): 2 (13) n (%) | TEAE subject incidence: Hepatic function abnormal ([2]; male, human, in vivo): 4 (27) n (%) | TEAE subject incidence: Insomnia ([2]; male, human, in vivo): 2 (13) n (%) | TEAE subject incidence: Malaise ([2]; male, human, in vivo): 4 (27) n (%) | TEAE subject incidence: Nasopharyngitis ([2]; male, human, in vivo): 3 (20) n (%) | TEAE subject incidence: Nausea ([2]; male, human, in vivo): 3 (20) n (%) | TEAE subject incidence: Rash ([2]; male, human, in vivo): 3 (20) n (%) | TEAE subject incidence: Vomiting ([2]; male, human, in vivo): 2 (13) n (%) | Total number of SAEs ([2]; male, human, in vivo): 14 SAEs | AUC(0-t) (clinical; 300 mg): 14500 ng·h/mL | AUC(0-t) (clinical; 400 mg): 28600 ng·h/mL | Time to C max (T max), range over cohorts (clinical; male): 1 to 3 h | Tmax (clinical; male, 200 mg): 1 h | AUC(0-t) (clinical; male, 200 mg): 7640 ng·h/mL | Cmax (clinical; male, 200 mg): 1580 ng/mL | Tmax (clinical; male, 300 mg): 3 h | Cmax (clinical; male, 300 mg): 3100 ng/mL | Tmax (clinical; male, 400 mg): 2.97 h | Cmax (clinical; male, 400 mg): 4700 ng/mL | Serum DHEA-S ([3]; Cycle 1 Day 8, 200 mg BID (N = 3), screening 114.7 (8.96)): 25.0 (7.21) μg/dL | Serum DHEA-S ([3]; Cycle 1 Day 8, 300 mg BID (N = 3), screening 146.7 (79.83)): 23.3 (14.57) μg/dL | Serum DHEA-S ([3]; Cycle 1 Day 8, 300 mg BID + prednisolone (N = 3), screening 136.0 (52.68)): 6.3 (4.16) μg/dL | Serum DHEA-S ([3]; Cycle 1 Day 8, 400 mg BID (N = 3), screening 60.3 (8.50)): 9.3 (0.58) μg/dL | Serum DHEA-S ([3]; Cycle 1 Day 8, 400 mg BID + prednisolone (N = 3), screening 40.3 (7.57)): 2.3 (0.58) μg/dL | Serum DHEA-S ([3]; Cycle 2 Day 1, 200 mg BID (N = 3), screening 114.7 (8.96)): 30.0 (9.64) μg/dL | Serum DHEA-S ([3]; Cycle 2 Day 1, 300 mg BID (N = 3), screening 146.7 (79.83)): 24.3 (11.93) μg/dL | Serum DHEA-S ([3]; Cycle 2 Day 1, 300 mg BID + prednisolone (N = 3), screening 136.0 (52.68)): 2.3 (0.58) μg/dL | Serum DHEA-S ([3]; Cycle 2 Day 1, 400 mg BID (N = 3), screening 60.3 (8.50)): 19.3 (16.29) μg/dL | Serum DHEA-S ([3]; Cycle 2 Day 1, 400 mg BID + prednisolone (N = 3), screening 40.3 (7.57)): 2.0 (0.00) μg/dL | Suppression of serum DHEA-S ([3]; Day 8): suppressed | Objective response rate (CR + PR) ([4]; General Rule for Clinical and Pathological Studies on Prostate Cancer, 5/15 patients): 33% | Best response of complete response (CR) [4, 6]: no patient had a best response of complete response (CR) | Patients with best response of partial response (PR) [4, 6]: five | Best response by modified RECIST version 1.0 ([4]; only six patients had measurable disease): No patient had a best response of CR or PR | Fractional urinary excretion rate [5]: 36 to 47 % of the dose
